Data reported in paper PMC7284125, “Identification of annotated bioactive molecules that impair motility of the blood fluke Schistosoma mansoni” (International Journal for Parasitology: Drugs and Drug …, 2020).
Where two headings read alike, the source gives them in different places.

Columns and labels:
[1] = system: S. mansoni schistosomulae; experiment: Phenotypic primary screen assay on schistosomulae (phenotype; viability by methylene blue dye exclusion); assay type: cell-based, Schistosoma mansoni; settings: three-day-old schistosomulae, 10 μM, 24 h; estimated 5 days post compound exposure
Protocol: Puerto Rican strain Biomphalaria glabrata snails infected with S. mansoni were kindly provided by Dr. Fred Lewis (Biomedical Research Institute and BEI Resources, MD, USA). Schistosomulae were obtained by exposing six to eight weeks-old snails to continuous light for 2 h at 32 °C. […] At this point, animals with internal dark granulations and with no observable body contraction/relaxation cycles were considered dead.
Schistosomulae were monitored under a stereo microscope (SMZ1270, Nikon). Phenotypic observations were made by analyzing schistosomulae, 24 h after drug addition to assess any immediate effect and five days post-compound exposure to observe long-term impacts on both the movement and overall body shape in comparison to control animals exposed to DMSO only.

[2] = system: S. mansoni schistosomulae; experiment: Motility assay on schistosomulae (pixel displacement, relative to DMSO control); assay type: cell-based, Schistosoma mansoni; settings: for activity at 1 µM: Schistosoma mansoni, read-out: Fractional motility
Protocol: Puerto Rican strain Biomphalaria glabrata snails infected with S. mansoni were kindly provided by Dr. Fred Lewis (Biomedical Research Institute and BEI Resources, MD, USA). Schistosomulae were obtained by exposing six to eight weeks-old snails to continuous light for 2 h at 32 °C. The resulting suspension of cercaria was then mechanically transformed as described ([Lewis, 2001]) and cultured in Opti-MEM/antibiotics (Thermo Fisher Scientific, Waltham, MA) containing 100 μg/mL streptomycin and 100 units/ml penicillin supplemented with 5% fetal bovine serum (FBS; Thermo Fisher). Parasite cultures were incubated at 37 °C with 5% CO2 for at least 10 days with no apparent loss of viability. At this point, animals with internal dark granulations and with no observable body contraction/relaxation cycles were considered dead.
(§1) Schistosomulae (200/well) and adult parasites (unpaired worms) were maintained in 300 μL OPTI-MEM with 5% dialyzed FBS (without antibiotics) and exposed to compounds at 1 and 10 μM for 24 h. A kinetic assay consisting of 1, 3, 6 and 12 h incubation times was performed on selected hits by motility monitoring using a stereo microscope (SMZ1270, Nikon) for adults and an inverted microscope for schistosomulae (eclipse TE2000-U, Nikon) connected to a monochrome camera (DS-Qi2, Nikon) for image acquisition. Images were recorded at a rate of 10 frames/s for a period of 1 min and videos were analyzed using ImageJ software (version 1.41, NIH, USA). Parasite movement quantification and data analysis protocols were applied using the pixel displacement method ([Patocka et al., 2014]; [Rashid et al., 2015]) and compared to control parasites treated with DMSO. Parasites were then washed several times in Opti-MEM, 5% FBS and incubated up to an additional three days (schistosomulae) or five days (adult worms) at 37 °C, 5% CO2 and motility was recorded as described above.

[3] = system: S. mansoni adult worms; experiment: Motility assay on adult parasites (pixel displacement, relative to DMSO control); assay type: cell-based, Schistosoma mansoni; settings: secondary screen, 10 μM
Protocol: Adult parasites were collected from 40 day-old female CD1 mice (Charles River) previously inoculated by the tail infection method ([Lewis, 2001]). Six weeks post-infection, mice were sacrificed, and adult worms extracted after perfusion of in the hepatic portal vein and mesenteric venules ([Lewis, 2001]). Animal procedures were reviewed and approved by the Facility Animal Care Committee of McGill University (Protocol No. 3346) and were conducted in accordance with the guidelines of the Canadian Council on Animal Care.
as §1

[4] = system: S. mansoni schistosomulae; experiment: Phenotypic primary screen assay on schistosomulae (phenotype; viability by methylene blue dye exclusion); assay type: cell-based; settings: Schistosoma mansoni; three-day-old schistosomulae, 10 μM, 24 h; calculated 5 days post compound exposure; read-out: Viability (%)
[5] = 120 h, schistosomulae, secondary screen, 24h exposure, read at D5, 1 µM
[6] = schistosomulae, secondary screen, 24h exposure, read at D1, 1 µM
[7] = schistosomulae, secondary screen, 24h exposure, read at D1, 10 µM
[8] = schistosomulae, secondary screen, 24h exposure, read at D5, 10 µM

Compound: CCN(CC)CCOc1ccc(C(=C(Cl)c2ccccc2)c2ccccc2)cc1 [Clomifene]
- Phenotype [1]: big, granulated
- activity at 1 µM [2, 5]: 49%
- activity at 1 µM [2, 6]: 12%
- Fractional motility [2, 7]: 1.47
- Fractional motility [2, 8]: 0.15
- Fractional motility ([3]; D1, Female adult worms): -0.44
- Fractional motility ([3]; D5, Female adult worms): -0.03
- Fractional motility ([3]; D5, Male adult worms): -0.17
- viability at 10 µM [4]: 100%

Compound: COCCCC/C(=N\OCCN)c1ccc(C(F)(F)F)cc1 [Fluvoxamine]
- Phenotype [1]: elongated
- activity at 1 µM [2, 5]: 99%
- activity at 1 µM [2, 6]: 812%
- Fractional motility [2, 7]: 10.49
- Fractional motility [2, 8]: 3.18
- Fractional motility ([3]; D1, Female adult worms): 1.69
- Fractional motility ([3]; D1, Male adult worms): 4.13
- Fractional motility ([3]; D5, Female adult worms): 0.13
- Fractional motility ([3]; D5, Male adult worms): 0.22
- viability at 10 µM [4]: 97%

Compound: O=C(O[C@H]1CN2CCC1CC2)N1CCc2ccccc2[C@@H]1c1ccccc1 [Solifenacin]
- Phenotype [1]: elongated, granulated, blebbing
- activity at 1 µM ([2]; 24 h): -30%
- activity at 1 µM ([2]; 120 h): -59%
- Fractional motility [2, 7]: 1.46
- Fractional motility [2, 8]: 0.44
- Fractional motility ([3]; D1, Female adult worms): 1.59
- Fractional motility ([3]; D1, Male adult worms): 2.65
- Fractional motility ([3]; D5, Female adult worms): -0.55
- Fractional motility ([3]; D5, Male adult worms): 0.28
- viability at 10 µM [4]: 96.5%

Compound: C=CC(=O)Nc1cc(Nc2nccc(-c3cn(C)c4ccccc34)n2)c(OC)cc1N(C)CCN(C)C [AZD9291]
- Phenotype [1]: dark, granulated, some blebbing
- activity at 1 µM [2, 5]: 134%
- activity at 1 µM [2, 6]: 89%
- Fractional motility ([2]; schistosomulae, 1h exposure, read at D1, 10 µM): 0.30
- Fractional motility ([2]; schistosomulae, 1h exposure, read at D5, 10 µM): -0.42
- Fractional motility ([2]; schistosomulae, 3h exposure, read at D1, 10 µM): 1.06
- Fractional motility ([2]; schistosomulae, 3h exposure, read at D5, 10 µM): -0.33
- Fractional motility ([2]; schistosomulae, 6h exposure, read at D1, 10 µM): -0.37
- Fractional motility ([2]; schistosomulae, 6h exposure, read at D5, 10 µM): 0.0374
- Fractional motility [2, 7]: 7.13
- Fractional motility [2, 8]: -0.73
- Fractional motility ([3]; D1, Female adult worms): -0.59
- Fractional motility ([3]; D1, Male adult worms): 0.48
- Fractional motility ([3]; D5, Female adult worms): -0.14
- Fractional motility ([3]; D5, Male adult worms): -0.20
- viability at 10 µM [4]: 39.5%

Compound: COCCCN1CCC(NC(=O)c2cc(Cl)c(N)c3c2OCC3)CC1 [Prucalopride]
- Phenotype [1]: elongated
- activity at 1 µM [2, 5]: -11%
- activity at 1 µM [2, 6]: 121%
- Fractional motility [2, 7]: 6.36
- Fractional motility [2, 8]: -0.28
- Fractional motility ([3]; D1, Female adult worms): -0.26
- Fractional motility ([3]; D1, Male adult worms): 0.72
- Fractional motility ([3]; D5, Female adult worms): -0.27
- Fractional motility ([3]; D5, Male adult worms): 0.34
- viability at 10 µM [4]: 96%

Compound: C=CC(=O)N1CCC[C@@H](n2nc(-c3ccc(Oc4ccccc4)cc3)c3c(N)ncnc32)C1 [Ibrutinib]
- Phenotype [1]: dark, granulated
- activity at 1 µM [2, 5]: 244%
- activity at 1 µM [2, 6]: -18%
- Fractional motility [2, 7]: 0.000588
- Fractional motility [2, 8]: -0.29
- Fractional motility ([3]; D1, Female adult worms): 0.33
- Fractional motility ([3]; D1, Male adult worms): 2.36
- Fractional motility ([3]; D5, Female adult worms): 0.36
- Fractional motility ([3]; D5, Male adult worms): 0.94
- viability at 10 µM [4]: 84.5%

Compound: C#C[C@]1(O)C=C[C@H]2[C@@H]3CCC4=CC(=O)CC[C@@H]4[C@H]3CC[C@@]21CC [Gestodene]
- Phenotype [1]: granulated
- activity at 1 µM [2, 5]: -29%
- activity at 1 µM [2, 6]: 51%
- Fractional motility [2, 7]: 4.27
- Fractional motility [2, 8]: -0.32
- Fractional motility ([3]; D1, Female adult worms): 1.24
- Fractional motility ([3]; D1, Male adult worms): 3.68
- viability at 10 µM [4]: 98%
